In brackets after ≈: the same amount, converted by molar mass. Where two headings read alike, the source gives them in different places.
Columns and labels:
[1] = test system: Pseudomonas aeruginosa 12-4-4; assay: In vitro MIC, agar dilution, Pseudomonas aeruginosa 12-4-4; assay type: cell-based; conditions: 1244; Pseudomonas aeruginosa 12-4-4; agar dilution, 35° C., 18 hours, nutrient agar; read-out: Minimal Inhibitory Concentration
Experimental: (§1) The in vitro activity of representative compounds of the present invention are given in the following Table I in terms of minimal inhibitory concentration. The test used was the standard agar dilution test using a Steers multiple inocula replicator and incubating at 35° C. for 18 hours in conventional nutrient agar.

Proteus rettgeri N76-1 = assay: In vitro MIC, agar dilution, Proteus rettgeri N76-1; assay type: cell-based; conditions: Providencia rettgeri, N761; Proteus rettgeri N76-1; agar dilution, 35° C., 18 hours, nutrient agar; read-out: Minimal Inhibitory Concentration
Experimental: as §1

[2] = test system: Klebsiella pneumoniae MA75-1; assay: In vitro MIC, agar dilution, Klebsiella pneumoniae MA75-1; assay type: cell-based; conditions: MA751; Klebsiella pneumoniae MA75-1; agar dilution, 35° C., 18 hours, nutrient agar; read-out: Minimal Inhibitory Concentration
Experimental: as §1

Escherichia coli 311 [3] = assay: In vivo systemic lethal infection of mice, Escherichia coli 311; design: species or system Charles River CD-1 mice; conditions: CD-1 mice
Description: (§2) As shown in Table II these compounds show high in vivo antibacterial activity against Escherichia coli 311 and Klebsiella pneumoniae W-75-2 when administered by a single subcutaneous dose to groups of Charles River CD-1 mice, weighing about 20 g. each. The mice are infected intraperitoneally with a lethal dose of these bacteria.

[4] = test system: Enterobacter cloacae MA75-1; assay: In vitro MIC, agar dilution, Enterobacter cloacae MA75-1; assay type: cell-based; conditions: read-out: Minimal Inhibitory Concentration
Experimental: as §1

[5] = test system: Pseudomonas aeruginosa G236; assay: In vitro MIC, agar dilution, Pseudomonas aeruginosa G236; assay type: cell-based; conditions: Pseudomonas aeruginosa G236; agar dilution, 35° C., 18 hours, nutrient agar; read-out: Minimal Inhibitory Concentration
Experimental: as §1

Proteus morganii K72 = assay: In vitro MIC, agar dilution, Proteus morganii K72; assay type: cell-based; conditions: Morganella morganii; Proteus morganii K72; agar dilution, 35° C., 18 hours, nutrient agar; read-out: Minimal Inhibitory Concentration
Experimental: as §1

[6] = test system: Klebsiella pneumoniae UR76-1; assay: In vitro MIC, agar dilution, Klebsiella pneumoniae UR76-1; assay type: cell-based; conditions: UR761; Klebsiella pneumoniae UR76-1; agar dilution, 35° C., 18 hours, nutrient agar; read-out: Minimal Inhibitory Concentration
Experimental: as §1

Proteus vulgaris N74-1 = assay: In vitro MIC, agar dilution, Proteus vulgaris N74-1; assay type: cell-based; conditions: N741, 35° C., 18 hours, nutrient agar, read-out: Minimal Inhibitory Concentration
Experimental: as §1

[7] = test system: Pseudomonas aeruginosa PD05141; assay: In vitro MIC, agar dilution, Pseudomonas aeruginosa PD05141; assay type: cell-based; conditions: read-out: Minimal Inhibitory Concentration
Experimental: as §1

Serratia marcens QHC77-2 = assay: In vitro MIC, agar dilution, Serratia marcens QHC77-2; assay type: cell-based; conditions: QHC772; Serratia marcens QHC77-2; agar dilution, 35° C., 18 hours, nutrient agar; read-out: Minimal Inhibitory Concentration
Experimental: as §1

Enterococcus SM77-15 = assay: In vitro MIC, agar dilution, Enterococcus SM77-15; assay type: cell-based; conditions: SM7715; Enterococcus SM77-15; agar dilution, 35° C., 18 hours, nutrient agar; read-out: Minimal Inhibitory Concentration
Experimental: as §1

Serratia K101 = assay: In vitro MIC, agar dilution, Serratia K101; assay type: cell-based; conditions: Serratia K101; agar dilution, 35° C., 18 hours, nutrient agar; read-out: Minimal Inhibitory Concentration
Experimental: as §1

Escherichia coli 311 [8] = assay: In vitro MIC, agar dilution, Escherichia coli 311; assay type: cell-based; conditions: 35° C., 18 hours, nutrient agar, read-out: Minimal Inhibitory Concentration
Experimental: as §1

Escherichia coli OSU75-1 = assay: In vitro MIC, agar dilution, Escherichia coli OSU75-1; assay type: cell-based; conditions: OSU751, 35° C., 18 hours, nutrient agar, read-out: Minimal Inhibitory Concentration
Experimental: as §1

[9] = test system: Escherichia coli ESS22-31; assay: In vitro MIC, agar dilution, Escherichia coli ESS22-31; assay type: cell-based; conditions: ESS2231; Escherichia coli ESS22-31; agar dilution, 35° C., 18 hours, nutrient agar; read-out: Minimal Inhibitory Concentration
Experimental: as §1

Serratia marcens K77-1 = assay: In vitro MIC, agar dilution, Serratia marcens K77-1; assay type: cell-based; conditions: K771; Serratia marcens K77-1; agar dilution, 35° C., 18 hours, nutrient agar; read-out: Minimal Inhibitory Concentration
Experimental: as §1

[10] = test system: Klebsiella pneumoniae W75-4; assay: In vitro MIC, agar dilution, Klebsiella pneumoniae W75-4; assay type: cell-based; conditions: W754; Klebsiella pneumoniae W75-4; agar dilution, 35° C., 18 hours, nutrient agar; read-out: Minimal Inhibitory Concentration
Experimental: as §1

[11] = test system: Staphylococcus aureus Q74-6; assay: In vitro MIC, agar dilution, Staphylococcus aureus Q74-6; assay type: cell-based; conditions: Q746; Staphylococcus aureus Q74-6; agar dilution, 35° C., 18 hours, nutrient agar; read-out: Minimal Inhibitory Concentration
Experimental: as §1

[12] = test system: Klebsiella pneumoniae W75-2; assay: In vitro MIC, agar dilution, Klebsiella pneumoniae W75-2; assay type: cell-based; conditions: W752; Klebsiella pneumoniae W75-2; agar dilution, 35° C., 18 hours, nutrient agar; read-out: Minimal Inhibitory Concentration
Experimental: as §1

Klebsiella pneumoniae AD = assay: In vitro MIC, agar dilution, Klebsiella pneumoniae AD; assay type: cell-based; conditions: Klebsiella pneumoniae AD; agar dilution, 35° C., 18 hours, nutrient agar; read-out: Minimal Inhibitory Concentration
Experimental: as §1

Escherichia coli W75-1 = assay: In vitro MIC, agar dilution, Escherichia coli W75-1; assay type: cell-based; conditions: W751, 35° C., 18 hours, nutrient agar, read-out: Minimal Inhibitory Concentration
Experimental: as §1

[13] = test system: Enterobacter aerogenes UR76-3; assay: In vitro MIC, agar dilution, Enterobacter aerogenes UR76-3; assay type: cell-based; conditions: Klebsiella aerogenes, UR763; Enterobacter aerogenes UR76-3; agar dilution, 35° C., 18 hours, nutrient agar; read-out: Minimal Inhibitory Concentration
Experimental: as §1

[14] = test system: Enterobacter cloacae OSU75-2; assay: In vitro MIC, agar dilution, Enterobacter cloacae OSU75-2; assay type: cell-based; conditions: OSU752; Enterobacter cloacae OSU75-2; agar dilution, 35° C., 18 hours, nutrient agar; read-out: Minimal Inhibitory Concentration
Experimental: as §1

[15] = test system: Staphylococcus aureus Q74-1; assay: In vitro MIC, agar dilution, Staphylococcus aureus Q74-1; assay type: cell-based; conditions: Q741; Staphylococcus aureus Q74-1; agar dilution, 35° C., 18 hours, nutrient agar; read-out: Minimal Inhibitory Concentration
Experimental: as §1

[16] = test system: Pseudomonas aeruginosa UCS 76-13; assay: In vitro MIC, agar dilution, Pseudomonas aeruginosa UCS 76-13; assay type: cell-based; conditions: UCS7613; Pseudomonas aeruginosa UCS 76-13; agar dilution, 35° C., 18 hours, nutrient agar; read-out: Minimal Inhibitory Concentration
Experimental: as §1

[17] = test system: Klebsiella pneumoniae W-75-2; assay: In vivo systemic lethal infection of mice, Klebsiella pneumoniae W-75-2; design: species or system Charles River CD-1 mice; conditions: CD-1 mice
Description: as §2

[18] = single subcutaneous dose 0.25 mg./kg.
[19] = single subcutaneous dose 0.5 mg./kg.
[20] = single subcutaneous dose 1 mg./kg.
[21] = single subcutaneous dose 2 mg./kg.
[22] = single subcutaneous dose 4 mg./kg.
[23] = single subcutaneous dose 0.12 mg./kg.
[24] = single subcutaneous dose 8 mg./kg.

Row | Structure (SMILES) | MIC [1] [µg/mL] | MIC (Proteus rettgeri N76-1) [µg/mL] | MIC [2] [µg/mL] | Alive/Total Mice Tested, 7 Days After Infection (Escherichia coli 311 [3]; [18]) | Alive/Total Mice Tested, 7 Days After Infection (Escherichia coli 311 [3]; [19]) | Alive/Total Mice Tested, 7 Days After Infection (Escherichia coli 311 [3]; [20]) | Alive/Total Mice Tested, 7 Days After Infection (Escherichia coli 311 [3]; [22]) | MIC [5] [µg/mL] | MIC (Proteus morganii K72) [µg/mL] | MIC [6] [µg/mL] | MIC (Proteus vulgaris N74-1) [µg/mL] | MIC (Serratia marcens QHC77-2) [µg/mL] | MIC (Enterococcus SM77-15) [µg/mL] | MIC (Serratia K101) [µg/mL] | MIC (Escherichia coli 311 [8]) [µg/mL] | MIC (Escherichia coli OSU75-1) [µg/mL] | MIC [9] [µg/mL] | MIC (Serratia marcens K77-1) [µg/mL] | MIC [10] [µg/mL] | MIC [11] [µg/mL] | other results
1 | CO/N=C(\C(=O)NC1C(=O)N2C(C(=O)O)=C(CSc3n[nH]c(-n4cccn4)n3)CSC12)c1csc(N)n1 (stereo not drawn) [Compound V, 7-[2-(Syn-methoxyimino)-2-(2-aminothiazol-4-yl)acetamido]-3-[5-(1-pyrazolyl)-1,2,4-triazol-3-ylthiomethyl]-3-cephem-4-carboxylic acid] | 16 (≈ 28.4 µM) | ≤ 0.12 | ≤ 0.12 | 0/5 | 0/5 | 5/5 | 5/5 | 16 (≈ 28.4 µM) | ≤ 0.12 | 0.25 (≈ 0.444 µM) | 2 (≈ 3.55 µM) | 0.25 (≈ 0.444 µM) | > 128 | 0.5 (≈ 0.889 µM) | ≤ 0.12 | ≤ 0.12 | ≤ 0.12 | 0.5 (≈ 0.889 µM) | ≤ 0.12 | 64 (≈ 114 µM) | Alive/Total Mice Tested, 7 Days After Infection (Escherichia coli 311 [3]; [21]): 5/5; MIC ([4]; Enterobacter cloacae, MA751, 18 h): > 128 µg/mL; MIC ([7]; Pseudomonas aeruginosa PD05141, agar dilution, 35° C., 18 hours, nutrient agar): 64 µg/mL (≈ 114 µM); MIC [12]: ≤ 0.12 µg/mL; MIC (Klebsiella pneumoniae AD): ≤ 0.12 µg/mL; MIC (Escherichia coli W75-1): ≤ 0.12 µg/mL; MIC [13]: ≤ 0.12 µg/mL; MIC [14]: 4 µg/mL (≈ 7.11 µM); MIC [15]: 1 µg/mL (≈ 1.78 µM); MIC [16]: 64 µg/mL (≈ 114 µM)
2 | CO/N=C(\C(=O)NC1C(=O)N2C(C(=O)O)=C(CSc3nnc(-n4cccn4)n3N)CSC12)c1csc(N)n1 (stereo not drawn) [Compound I, 7-[2-(Syn-methoxyimino)-2-(2-aminothiazol-4-yl)acetamido]-3-[4-amino-5-(1-pyrazolyl)-1,2,4-triazol-3-ylthiomethyl]-3-cephem-4-carboxylic acid] | 64 (≈ 111 µM) | ≤ 0.12 | ≤ 0.12 | 6/20 | 15/20 | 19/20 | – | 64 (≈ 111 µM) | ≤ 0.12 | 0.5 (≈ 0.866 µM) | ≤ 0.12 | 1 (≈ 1.73 µM) | > 128 | 0.5 (≈ 0.866 µM) | ≤ 0.12 | ≤ 0.12 | ≤ 0.12 | 0.5 (≈ 0.866 µM) | ≤ 0.12 | 64 (≈ 111 µM) | Alive/Total Mice Tested, 7 Days After Infection ([17]; single subcutaneous dose 0.06 mg./kg.): 1/20; Alive/Total Mice Tested, 7 Days After Infection [17, 23]: 2/20; Alive/Total Mice Tested, 7 Days After Infection [17, 18]: 14/20; Alive/Total Mice Tested, 7 Days After Infection [17, 19]: 19/20; Alive/Total Mice Tested, 7 Days After Infection (Escherichia coli 311 [3]; [23]): 1/20; MIC ([4]; MA751, Enterobacter cloacae MA75-1, agar dilution, 35° C., 18 hours, nutrient agar): 128 µg/mL (≈ 222 µM); MIC ([7]; Pseudomonas aeruginosa, PD05141, 18 h): 128 µg/mL (≈ 222 µM); MIC [12]: ≤ 0.12 µg/mL; MIC (Klebsiella pneumoniae AD): ≤ 0.12 µg/mL; MIC (Escherichia coli W75-1): ≤ 0.12 µg/mL; MIC [13]: ≤ 0.12 µg/mL; MIC [14]: 0.5 µg/mL (≈ 0.866 µM); MIC [15]: 2 µg/mL (≈ 3.46 µM); MIC [16]: 128 µg/mL (≈ 222 µM)
3 | Cn1nnnc1SCC1=C(C(=O)O)N2C(=O)[C@@H](NC(=O)[C@H](O)c3ccccc3)[C@H]2SC1 [Cefamandol] | – | – | – | – | – | – | 6/20 | – | – | – | – | – | – | – | – | – | – | – | – | – | Alive/Total Mice Tested, 7 Days After Infection [17, 19]: 0/20; Alive/Total Mice Tested, 7 Days After Infection [17, 20]: 1/20; Alive/Total Mice Tested, 7 Days After Infection [17, 21]: 7/20; Alive/Total Mice Tested, 7 Days After Infection [17, 22]: 19/20; Alive/Total Mice Tested, 7 Days After Infection [17, 24]: 20/20; Alive/Total Mice Tested, 7 Days After Infection (Escherichia coli 311 [3]; [24]): 11/20; Alive/Total Mice Tested, 7 Days After Infection (Escherichia coli 311 [3]; single subcutaneous dose 16 mg./kg.): 20/20; Alive/Total Mice Tested, 7 Days After Infection (Escherichia coli 311 [3]; single subcutaneous dose 32 mg./kg.): 20/20
